According to patent US20220265700A1, “METHODS TO PREVENT, INHIBIT OR TREAT INTERVERTEBRAL DISC DEGENERATION” (University of Iowa Research Foundation, priority 2021, published 2022):
Read-outs that look alike come from different tables or passages of the source.

Experiments:
nucleus pulposus cells [1] = conditions: for cell viability: normalized by control
SOD2 and Nrf2 = SOD2 and Nrf2 IHC staining of tBHP-exposed IVDs; format: cell-based, rabbit; conditions: 100 μM tBHP 30 minutes, then 10 mM NAC 24 hours
JNK = experiment: Immunofluorescence staining of phosphorylated JNK; format: cell-based, rabbit
nucleus pulposus tissues = experiment: DHE staining, ex vivo organ culture of transversely cut intervertebral discs; format: cell-based, rabbit; conditions: 10 mM NAC or […] amobarbital for 24 h after cutting
Nrf2 [2] = experiment: Nrf2 staining, ex vivo organ culture of transversely cut intervertebral discs; format: cell-based, rabbit; conditions: 10 mM NAC or […] amobarbital for 24 h after cutting
ERK = experiment: Immunofluorescence staining of phosphorylated ERK; format: cell-based, rabbit
nucleus pulposus (NP) = experiment: DHE staining of IVDs exposed to 100 μM tBHP; format: cell-based, rabbit; conditions: 100 μM tBHP 30 minutes, then 10 mM NAC 24 hours
p38 = experiment: Immunofluorescence staining of phosphorylated p38; format: cell-based, rabbit
nucleus pulposus cells [3] = experiment: Mitochondrial ROS production, MitoSOX Red; format: cell-based, rabbit
[4] = Amo stability in HA hydrogel according to USP guidelines; format: physicochemical; conditions: mixed with Gel-One HA hydrogel, data not shown
Excerpt: Amo is primarily applied as a sedative-hypnotic to treat sleep disorder and as a preanesthetic agent.

Nrf2 [5] = experiment: Nrf2 staining in NP cells under tBHP-induced oxidative stress; conditions: pre-treated with […] amobarbital 2 h, then 50 μM tBHP 1 h
NP cells = experiment: TUNEL assay, ex vivo IVD puncture model; format: cell-based, rabbit; conditions: 7 days; Amo in hydrogel after disc puncture
Excerpt: Overall study design is illustrated in FIG. 15A. A total of 36 rabbit thoracic and lumbar motion segments (T11/L2) including two vertebral bodies and one IVD were obtained from New Zealand White (NZW) rabbit cadavers (approximately 10-months old) without radiographic evidence of trauma by X-ray. Under sterile conditions, the segments were dissected by removing the posterior elements and soft tissues. The discs were punctured using a 20-gauge needle with 3 mm-depth, and the needle was held in place for 5 seconds. Discal injury was confirmed by herniated nucleus pulposus (NP) through the needle hole. After the puncture, 5 μl hydrogel (17% F-127/0.425% HA) with or without 2.5 mM Amo was injected into the NP using a 30-gauge Hamilton syringe with a stopper (Thermo Fisher Scientific, Waltham, Mass., USA). […]
Apoptotic cells in the NP were detected using a terminal deoxynucleotidyl transferase dUTP nick end labelling (TUNEL) assay (Abcam, Cambridge, Mass., USA) according to the manufacturer's instructions. […] Then, the sections were labeled with terminal transferase (TdT) enzyme for 1.5 h, detected with blocking buffer for 30 min, developed with working 3,3′-diaminobenzidine (DAB) solution for 15 min, and counterstained with methyl green for 1.5 min. After scanning images, the number of positive cells in each tissue was counted and normalized by the data from the 2-days intact group.

nucleus pulposus cells [6] = experiment: Mitochondrial membrane potential, JC-1 assay; format: cell-based, rabbit; conditions: 50 μM tBHP 1 h
rabbit NP cells = format: cell-based; conditions: exposed to 100 μM tBHP
[7] = test system: rat nucleus pulposus cells; conditions: 100 μM tBHP for 24 h (2019 report); cited from earlier work
[8] = test system: human nucleus pulposus cells; conditions: 400 μM tBHP for 6 h (Xu et al. 2019); cited from earlier work
nucleus pulposus cells [9] = conditions: 100 μM tBHP exposure
[10] = 10 mM NAC, […] amobarbital or 20 μM inhibitor, 50 μM tBHP 1 h

Structure (SMILES): CC(=O)N[C@@H](CS)C(=O)O [NAC, N-acetylcysteine]
- protective effect on cell viability (cell death) (nucleus pulposus cells [1]; 0.1-10 mM pre-treatment 2 h prior to 50 μM tBHP, until 24 h): significantly prohibited the cell death
- concentration at which no cytotoxicity was exhibited (nucleus pulposus cells [1]; New Zealand White, rabbit, 2 h): lower than 10 mM
- oxidative damage in NP cells by SOD2 and Nrf2 IHC staining (SOD2 and Nrf2): reduced oxidative damage
- phosphorylation of JNK vs. tBHP (JNK; [10]): inhibited the phosphorylation
- DHE dye oxidation (ROS) in injured NP tissues (nucleus pulposus tissues): dramatically reduced dye oxidation
- Nrf2 expression in the cytosol compared with injured control group (Nrf2 [2]): approximately 6.8 times
- Nrf2 translocation to the nucleus after injury (Nrf2 [2]): prevented
- phosphorylation of ERK vs. tBHP (ERK; [10]): inhibited the phosphorylation
- DHE positive cells compared with non-treated control (nucleus pulposus (NP)): dramatic reduction
- phosphorylation of p38 vs. tBHP (p38; [10]): inhibited the phosphorylation

Structure (SMILES): COc1cccc(-c2cc(=O)c3ccccc3o2)c1N [PD98059]
- phosphorylation of ERK vs. tBHP (ERK): minimized the phosphorylation

Structure (SMILES): C[S+]([O-])c1ccc(-c2nc(-c3ccncc3)c(-c3ccc(F)cc3)[nH]2)cc1 (stereo not shown) [SB203580]
- phosphorylation of JNK vs. tBHP (JNK): minimized the phosphorylation

Structure (SMILES): CCC1(CCC(C)C)C(=O)NC(=O)NC1=O [amobarbital]
- protective effect on cell viability (cell death) (nucleus pulposus cells [1]): significantly prohibited the cell death
- phosphorylation of JNK vs. tBHP (JNK): inhibited the phosphorylation
- MitoSOX-stained cells (imaging) (nucleus pulposus cells [3]): large decrease
- Nrf2 expression in the cytosol compared with injured control group (Nrf2 [2]): ~7.8 times
- Nrf2 translocation to the nucleus after injury (Nrf2 [2]): prevented
- phosphorylation of ERK vs. tBHP (ERK): inhibited the phosphorylation
- Amo stability in hydrogel [4]: stability in human biologic fluids and various conditions
- Nrf2 expression in the cytosol of NP cells (Nrf2 [5]): close to control
- TUNEL-positive (apoptotic) NP cells vs. HG (NP cells): diminished number of cell apoptosis
- phosphorylation of p38 vs. tBHP (p38): inhibited the phosphorylation

Structure (SMILES): CC(C)(C)OO [tBHP, tert-butyl hydrogen peroxide]
- ratio of J-aggregate form to monomeric form vs. control (nucleus pulposus cells [6]): significantly reduced
- cell viability (nucleus pulposus cells [1]; 25 μM tBHP, 1 h): 90.8%
- cell viability (nucleus pulposus cells [1]; 50 μM tBHP, 1 h): 77.1%
- cell loss (viability) (nucleus pulposus cells [1]; 100-400 μM tBHP, 1 h): 70.6-72.9%
- basal oxygen consumption rate (OCR) (rabbit NP cells): increased
- cell apoptosis relative to control [7]: approximately 7 times
- rate of phosphorylated JNK compared with control (JNK; 50 μM tBHP 1 h): approximately 5.9 times
- superoxide production (MitoSOX Red) (nucleus pulposus cells [3]; 25 μM tBHP): no superoxide production was observed
- phosphorylation of ERK vs. control (ERK; 50 μM tBHP 1 h): significantly phosphorylated
- viability [8]: 54.3%
- apoptotic/necrotic cells after tBHP exposure (nucleus pulposus cells [9]): became apoptotic and/or necrotic cells
- rate of phosphorylated p38 compared with control (p38; 50 μM tBHP 1 h): ~9.7 times
